Laboratory results taken from the supplement of paper PMC4862054.

Key:
Details in all cases: incubation time: 72 h
BT-474 = test: drug sensitivity score (DSS), CellTox Green (DSS (AUC-based score)); higher = stronger drug effect (viability inhibition or cytotoxicity); extreme values may be limits of the assay
Procedure, shortened: (§1)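 A drug sensitivity score was derived from the area under each fitted dose-response curve. Breast cancer cells (20 µl suspension) were seeded onto compound in 384-well plates, using 5 concentrations 10-fold apart over a compound-specific 10,000-fold range, and incubated 72 h. Readouts were CellTox Green fluorescence and then CellTiter-Glo luminescence, with every plate normalised to 0.1 % DMSO and a positive kill control.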

BT-549 [1] = test: as above
Procedure, shortened: as §1

CAL-148 [2] = test: as above
Procedure, shortened: as §1

CAL-51 = test: as above
Procedure, shortened: as §1

CAL-85-1 = test: as above
Procedure, shortened: as §1

DU-4475 [3] = test: as above
Procedure, shortened: as §1

HCC1143 = test: as above
Procedure, shortened: as §1

HCC1599 = test: as above
Procedure, shortened: as §1

HCC1937 = test: as above
Procedure, shortened: as §1

HDQ-P1 = test: as above
Procedure, shortened: as §1

MCF-10A = test: as above
Procedure, shortened: as §1

MDA-MB-231 [4] = test: as above
Procedure, shortened: as §1

MDA-MB-436 = test: as above
Procedure, shortened: as §1

MDA-MB-453 [5] = test: as above
Procedure, shortened: as §1

MDA-MB-468 [6] = test: as above
Procedure, shortened: as §1

Hs578T [7] = test: as above
Procedure, shortened: as §1

BT-549 [8] = test: normalised viability (% of control), CellTiter-Blue; higher = more viable cells (about 100 = DMSO control)
Procedure, shortened: (§2)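 Seeded at 20 µl suspension per well onto compound-loaded 384-well plates, breast cancer cell lines were incubated 72 h. CellTiter-Blue fluorescence at 560/590 nm was then read, with each plate normalised to vehicle (100) and a positive kill control (0). Normalised viability is reported at a single listed concentration of the series.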

CAL-120 = test: as above
Procedure, shortened: as §2

CAL-148 [9] = test: as above
Procedure, shortened: as §2

DU-4475 [10] = test: as above
Procedure, shortened: as §2

Hs578T [11] = test: as above
Procedure, shortened: as §2

MDA-MB-231 [12] = test: as above
Procedure, shortened: as §2

MDA-MB-453 [13] = test: as above
Procedure, shortened: as §2

MDA-MB-468 [14] = test: as above
Procedure, shortened: as §2

MFM-223 = test: as above
Procedure, shortened: as §2

SMILES: CC(C)n1cnc2c(NCCc3ccc(O)cc3)nc(-c3csc4ccccc34)nc21 [StemRegenin 1]
- drug sensitivity score (BT-474): 1.03
- drug sensitivity score (BT-549 [1]): 0
- drug sensitivity score (CAL-148 [2]): 0
- drug sensitivity score (CAL-51): 0
- drug sensitivity score (CAL-85-1): 0
- drug sensitivity score (DU-4475 [3]): 0
- drug sensitivity score (HCC1143): 0
- drug sensitivity score (HCC1599): 0
- drug sensitivity score (HCC1937): 0
- drug sensitivity score (HDQ-P1): 0
- drug sensitivity score (MCF-10A): 0
- drug sensitivity score (MDA-MB-231 [4]): 0
- drug sensitivity score (MDA-MB-436): 0
- drug sensitivity score (MDA-MB-453 [5]): 0
- drug sensitivity score (MDA-MB-468 [6]): 0

SMILES: CCn1c(C(=O)N(C2CC2)C2CC2)cc2c3c(ncn3C)c(Nc3cc(C)n(C)n3)nc21
- drug sensitivity score (BT-474): 0
- drug sensitivity score (CAL-148 [2]): 0
- drug sensitivity score (CAL-51): 0
- drug sensitivity score (CAL-85-1): 0
- drug sensitivity score (DU-4475 [3]): 0
- drug sensitivity score (HCC1143): 1.62
- drug sensitivity score (HCC1599): 0
- drug sensitivity score (HCC1937): 3.5
- drug sensitivity score (HDQ-P1): 0
- drug sensitivity score (Hs578T [7]): 0
- drug sensitivity score (MCF-10A): 0
- drug sensitivity score (MDA-MB-231 [4]): 0
- drug sensitivity score (MDA-MB-436): 0
- drug sensitivity score (MDA-MB-453 [5]): 0
- drug sensitivity score (MDA-MB-468 [6]): 1.81

SMILES: CC[C@H](CO)Nc1nc(NCc2ccccc2)c2ncn(C(C)C)c2n1 [Roscovitine]
- normalised viability (BT-549 [8]; 10 nM): 83.8%
- normalised viability (BT-549 [8]; 1000 nM): 84.4%
- normalised viability (BT-549 [8]; 10000 nM): 76.4%
- normalised viability (CAL-120; 10 nM): 82.7%
- normalised viability (CAL-120; 1000 nM): 86.1%
- normalised viability (CAL-120; 10000 nM): 76.3%
- normalised viability (CAL-148 [9]; 3 nM): 77.4%
- normalised viability (CAL-148 [9]; 30 nM): 85.8%
- normalised viability (CAL-148 [9]; 100 nM): 83.5%
- normalised viability (DU-4475 [10]; 3 nM): 99.9%
- normalised viability (DU-4475 [10]; 30 nM): 101%
- normalised viability (DU-4475 [10]; 100 nM): 89.7%
- normalised viability (Hs578T [11]; 10 nM): 111%
- normalised viability (Hs578T [11]; 1000 nM): 91.4%
- normalised viability (Hs578T [11]; 10000 nM): 42.6%
- normalised viability (MDA-MB-231 [12]; 10 nM): 88%
- normalised viability (MDA-MB-231 [12]; 1000 nM): 96.5%
- normalised viability (MDA-MB-231 [12]; 10000 nM): 76.6%
- normalised viability (MDA-MB-453 [13]; 3 nM): 105%
- normalised viability (MDA-MB-453 [13]; 30 nM): 114%
- normalised viability (MDA-MB-453 [13]; 100 nM): 109%
- normalised viability (MDA-MB-468 [14]; 10 nM): 93%
- normalised viability (MDA-MB-468 [14]; 1000 nM): 106%
- normalised viability (MDA-MB-468 [14]; 10000 nM): 83.7%
- normalised viability (MFM-223; 10 nM): 92.5%
- normalised viability (MFM-223; 1000 nM): 91.5%
- normalised viability (MFM-223; 10000 nM): 85.1%

SMILES: COc1c2occc2cc2ccc(=O)oc12 [Methoxsalen]
- normalised viability (BT-549 [8]; 10 nM): 90.9%
- normalised viability (BT-549 [8]; 1000 nM): 104%
- normalised viability (BT-549 [8]; 10000 nM): 82.9%
- normalised viability (CAL-120; 10 nM): 99.1%
- normalised viability (CAL-120; 1000 nM): 101%
- normalised viability (CAL-120; 10000 nM): 104%
- normalised viability (CAL-148 [9]; 3 nM): 98.7%
- normalised viability (CAL-148 [9]; 30 nM): 95.8%
- normalised viability (CAL-148 [9]; 100 nM): 100%
- normalised viability (DU-4475 [10]; 3 nM): 95.6%
- normalised viability (DU-4475 [10]; 30 nM): 111%
- normalised viability (DU-4475 [10]; 100 nM): 111%
- normalised viability (Hs578T [11]; 10 nM): 55.3%
- normalised viability (Hs578T [11]; 1000 nM): 138%
- normalised viability (Hs578T [11]; 10000 nM): 110%
- normalised viability (MDA-MB-231 [12]; 10 nM): 102%
- normalised viability (MDA-MB-231 [12]; 1000 nM): 99.1%
- normalised viability (MDA-MB-231 [12]; 10000 nM): 112%
- normalised viability (MDA-MB-453 [13]; 3 nM): 119%
- normalised viability (MDA-MB-453 [13]; 30 nM): 103%
- normalised viability (MDA-MB-453 [13]; 100 nM): 112%
- normalised viability (MDA-MB-468 [14]; 10 nM): 107%
- normalised viability (MDA-MB-468 [14]; 1000 nM): 112%
- normalised viability (MDA-MB-468 [14]; 10000 nM): 105%
- normalised viability (MFM-223; 10 nM): 100%
- normalised viability (MFM-223; 1000 nM): 101%
- normalised viability (MFM-223; 10000 nM): 50.5%

SMILES: CC(O)(CS(=O)(=O)c1ccc(F)cc1)C(=O)Nc1ccc(C#N)c(C(F)(F)F)c1 (configuration not stated) [Bicalutamide]
- normalised viability (BT-549 [8]; 10 nM): 87%
- normalised viability (BT-549 [8]; 1000 nM): 94.3%
- normalised viability (BT-549 [8]; 10000 nM): 87.2%
- normalised viability (CAL-120; 10 nM): 96%
- normalised viability (CAL-120; 1000 nM): 107%
- normalised viability (CAL-120; 10000 nM): 119%
- normalised viability (CAL-148 [9]; 3 nM): 101%
- normalised viability (CAL-148 [9]; 30 nM): 100%
- normalised viability (CAL-148 [9]; 100 nM): 102%
- normalised viability (DU-4475 [10]; 3 nM): 92.2%
- normalised viability (DU-4475 [10]; 30 nM): 88.8%
- normalised viability (DU-4475 [10]; 100 nM): 99.1%
- normalised viability (Hs578T [11]; 10 nM): 108%
- normalised viability (Hs578T [11]; 1000 nM): 112%
- normalised viability (Hs578T [11]; 10000 nM): 113%
- normalised viability (MDA-MB-231 [12]; 10 nM): 103%
- normalised viability (MDA-MB-231 [12]; 1000 nM): 122%
- normalised viability (MDA-MB-231 [12]; 10000 nM): 122%
- normalised viability (MDA-MB-453 [13]; 3 nM): 114%
- normalised viability (MDA-MB-453 [13]; 30 nM): 89.2%
- normalised viability (MDA-MB-453 [13]; 100 nM): 95.9%
- normalised viability (MDA-MB-468 [14]; 10 nM): 118%
- normalised viability (MDA-MB-468 [14]; 1000 nM): 93.9%
- normalised viability (MDA-MB-468 [14]; 10000 nM): 91.3%
- normalised viability (MFM-223; 10 nM): 89.2%
- normalised viability (MFM-223; 1000 nM): 91.8%
- normalised viability (MFM-223; 10000 nM): 94%
- drug sensitivity score (BT-474): 0
- drug sensitivity score (BT-549 [1]): 0
- drug sensitivity score (CAL-148 [2]): 0
- drug sensitivity score (CAL-51): 0
- drug sensitivity score (CAL-85-1): 0
- drug sensitivity score (DU-4475 [3]): 0
- drug sensitivity score (HCC1143): 0
- drug sensitivity score (HCC1599): 0
- drug sensitivity score (HCC1937): 0
- drug sensitivity score (HDQ-P1): 0
- drug sensitivity score (Hs578T [7]): 0
- drug sensitivity score (MCF-10A): 0
- drug sensitivity score (MDA-MB-231 [4]): 0
- drug sensitivity score (MDA-MB-436): 0
- drug sensitivity score (MDA-MB-453 [5]): 0

SMILES: CCNC(=O)CCC/C=C\C[C@@H]1[C@@H](/C=C/[C@@H](O)CCc2ccccc2)[C@H](O)C[C@@H]1O [Bimatoprost]
- normalised viability (BT-549 [8]; 5.5 nM): 102%
- normalised viability (BT-549 [8]; 550 nM): 109%
- normalised viability (BT-549 [8]; 5500 nM): 85.5%
- normalised viability (CAL-120; 5.5 nM): 95.3%
- normalised viability (CAL-120; 550 nM): 92.4%
- normalised viability (CAL-120; 5500 nM): 94%
- normalised viability (CAL-148 [9]; 1.65 nM): 92.6%
- normalised viability (CAL-148 [9]; 16.5 nM): 90.9%
- normalised viability (CAL-148 [9]; 55 nM): 95.2%
- normalised viability (DU-4475 [10]; 1.65 nM): 112%
- normalised viability (DU-4475 [10]; 16.5 nM): 99.4%
- normalised viability (DU-4475 [10]; 55 nM): 95.5%
- normalised viability (Hs578T [11]; 5.5 nM): 110%
- normalised viability (Hs578T [11]; 550 nM): 116%
- normalised viability (Hs578T [11]; 5500 nM): 98.1%
- normalised viability (MDA-MB-231 [12]; 5.5 nM): 100%
- normalised viability (MDA-MB-231 [12]; 550 nM): 97.2%
- normalised viability (MDA-MB-231 [12]; 5500 nM): 97.6%
- normalised viability (MDA-MB-453 [13]; 1.65 nM): 116%
- normalised viability (MDA-MB-453 [13]; 16.5 nM): 91.7%
- normalised viability (MDA-MB-453 [13]; 55 nM): 92.5%
- normalised viability (MDA-MB-468 [14]; 5.5 nM): 97.1%
- normalised viability (MDA-MB-468 [14]; 550 nM): 123%
- normalised viability (MDA-MB-468 [14]; 5500 nM): 111%
- normalised viability (MFM-223; 5.5 nM): 112%
- normalised viability (MFM-223; 550 nM): 104%
- normalised viability (MFM-223; 5500 nM): 96.7%
- drug sensitivity score (BT-474): 0
- drug sensitivity score (BT-549 [1]): 0
- drug sensitivity score (CAL-148 [2]): 0
- drug sensitivity score (CAL-51): 0
- drug sensitivity score (CAL-85-1): 0
- drug sensitivity score (DU-4475 [3]): 0
- drug sensitivity score (HCC1143): 0
- drug sensitivity score (HCC1599): 0
- drug sensitivity score (HCC1937): 0
- drug sensitivity score (Hs578T [7]): 2.06
- drug sensitivity score (MCF-10A): 0
- drug sensitivity score (MDA-MB-231 [4]): 0
- drug sensitivity score (MDA-MB-436): 0
- drug sensitivity score (MDA-MB-453 [5]): 0
